# pIC50: −log10 of the molar value. Like-named read-outs stand apart in the source and are kept apart here.
# Tests used:
# [1] = system: IL-2 expression in primary mouse CD4+ T cells (mammalian calcineurin); assay: In vitro immunosuppressive activity, IL-2 expression (Example 3); format: cell-based; settings: 72 h
# Experimental: Modifications at the C-22 position reduce inhibition of mammalian calcineurin signaling Mammalian calcineurin inhibition was then assessed and found to be reduced for these FK520 analogs. The inhibition of mammalian calcineurin was assessed by measuring the reduction of IL-2 expression from primary mouse CD4^+ T cells cultured in the presence of FK506, FK520, or an analog. Calcineurin activity is required for T cell activation and cytokine production, and IL-2 production serves as an effective measure of mammalian calcineurin activity. After culturing mouse CD4′ T cells for 72 h, IL-2 expression was analyzed by flow cytometry to evaluate the immunosuppressive activity of the analogs. […] However, compound concentrations that permit high IL-2 expression are less likely to result in cell death.
# Spleen and lymph nodes from C57BL/6 mice were collected and homogenized through a 40-μm filter. Pan-CD4^+ T cells were enriched using the MagniSort Mouse CD4 T Cell Enrichment Kit (Invitrogen). Thereafter, CD4^+CD25^−CD62L^hiCD44^lo naïve CD4^+ T cells were FACS-sorted using a MoFlo Astrios cell sorter (Beckman Coulter). Naïve CD4^+ T cells were cultured in Iscove's Modified Dulbecco's Medium supplemented with 10% fetal bovine serum (FBS), penicillin (10 U/mL), streptomycin (10 μg/mL), glutamine (2 mM), gentamicin (50 μg/mL), and β-mercaptoethanol (55 μM). Cells were cultured for 72 h on anti-hamster IgG-coated plates with hamster anti-CD3s antibodies, hamster anti-CD28 antibodies, neutralizing anti-IL-4 antibodies, recombinant IL-12 (10 ng/mL), and recombinant IL-2 (50 U/mL). During this culture, cells were incubated with serially diluted drugs suspended in DMSO.
# [2] = system: C. neoformans; assay: MIC assay (Example 4); format: cell-based, Cryptococcus neoformans; settings: 37° C.; for MIC: Cryptococcus neoformans, read-out: C. neoformans MIC
# Experimental: Both JH-FK-10 and JH-FK-11 maintained in vitro antifungal activity against C. neoformans with MICs of 0.8 and 1.6 μg/mL, respectively (Table 11).
# In vitro antifungal activity of FK506, FK520, and analogs was assessed in RPMI 1640 (Sigma-Aldrich) for all strains tested. Minimum inhibitory concentrations (MIC) for each drug were measured using modified Clinical and Laboratory Standards Institute (CLSI) M38-A2 and M27-A3 standard in vitro antifungal susceptibility protocols. Broth microdilution assays for MIC assessment were performed as previously described. All antifungal assays with C. neoformans were performed at 37° C.
# [3] = system: IL-2 expression in primary murine CD4+ T cells; assay: In vitro immunosuppressive activity, IL-2 expression (Example 4); format: cell-based, mouse; settings: Mus musculus, CD4+ T
# Experimental: Spleen and lymph nodes were collected from C57BL/6 mice and homogenized through a 40 μm filter. Pan-CD4^+ T cells were enriched using MagniSort Mouse CD4 T cell Kit (eBioscience) according to the manufacturer's protocol. Thereafter, CD4+CD25−CD44lo CD62Lhi naïve T cells were FACS-sorted. The naïve CD4+ T cells were grown in Iscove's Modified Dulbecco's Medium (IMDM) supplemented with glutamine, penicillin, streptomycin, gentamicin, 2-mercaptoethanol, and 10% FBS. Cells were then cultured on anti-hamster IgG coated plates in the presence of hamster anti-CD3 epsilon and anti-CD28 antibodies (BD Biosciences), neutralizing anti-IL-4 antibody (eBioscience), recombinant IL-12 (10 ng/mL), and recombinant IL-2 (50 U/mL) for 72 h. During this period, cells were grown in the presence of 2× serially diluted FK506, FK520, or analog suspended in DMSO for 72 h. During the last 4 h of culture, phorbol 12-myristate 13-acetate (PMA; Sigma), ionomycin (Sigma), and GolgiStop (BD Biosciences) were added to the culture to facilitate detection of intracellular cytokines via flow cytometry.
# Live cells were stained with FITC-conjugated anti-CD4 antibody (eBioscience) and Fixable Viability Dye eFluor 506 (eBioscience) on ice, followed by fixation and permeabilization using the Foxp3 Transcription Factor Staining Kit (eBioscience). Intracellular staining was performed at room temperature using PE-conjugated anti-IL-2 antibody (eBioscience), followed by analysis with a BD LSRFortessa X-20 flow cytometer.
SMILES,pIC50 [1],MIC ([2]; Table 11) [mg/L],MIC ([2]; Table 12) [mg/L],MIC ([2]; Table 13) [mg/L],pIC50 ([3]; Table 12),C. neoformans MIC ([2]; Table 11) [mg/L],C. neoformans MIC ([2]; Table 12) [mg/L],C. neoformans MIC ([2]; Table 13) [mg/L],pIC50 ([3]; Table 13)
"C=CCC1C=C(C)CC(C)CC(OC)C2OC(O)(C(=O)C(=O)N3CCCCC3C(=O)OC(C(C)=CC3CCC(O)C(OC)C3)C(C)C(O)CC1=O)C(C)CC2OC (stereo not shown) [FK506, reference compound]",10.05,0.05,0.05,0.05,9.96,,,,
"CC[C@@H]1/C=C(\C)C[C@H](C)C[C@H](OC)[C@H]2O[C@@](O)(C(=O)C(=O)N3CCCC[C@H]3C(=O)O[C@H](/C(C)=C/[C@@H]3CC[C@@H](O)[C@H](OC)C3)[C@H](C)[C@@H](O)CC1=O)[C@H](C)C[C@@H]2OC [FK520, reference compound]",9.52,,,,9.32,0.05,0.05,0.05,
CC[C@@H]1/C=C(\C)C[C@H](C)C[C@H](OC)[C@H]2O[C@@](O)(C(=O)C(=O)N3CCCC[C@H]3C(=O)O[C@H](/C(C)=C/[C@@H]3CC[C@@H](O)[C@H](OC)C3)[C@H](C)[C@@H](O)C/C1=N/NC(C)=O)[C@H](C)C[C@@H]2OC [JH-FK-05],,,,1,,,,,7.70
CC[C@@H]1/C=C(\C)C[C@H](C)C[C@H](OC)[C@H]2O[C@@](O)(C(=O)C(=O)N3CCCC[C@H]3C(=O)O[C@H](/C(C)=C/C3CC[C@@H](O)[C@H](OC)C3)[C@H](C)[C@@H](O)C/C1=N/NC(=O)OC)[C@H](C)C[C@@H]2OC (stereo partly shown) [JH-FK-08],7.37,,,,,,,,
